Results: US20170283440A1, “CARM1 INHIBITORS AND USES THEREOF” (Epizyme, Inc., priority 2014, published 2017)
Like-named read-outs stand apart in the source and are kept apart here.

Assays:
[1] = system: asymmetric di-methyl PABP1 in RKO cells; assay: RKO methylation assay (In Cell Western for asymmetric di-methyl PABP1); format: cell-based; settings: 48 hours incubation, read-out: Cellular IC50
Description: RKO adherent cells were purchased from ATCC (American Type Culture Collection), Manassas, Va., USA. DMEM/Glutamax medium, penicillin-streptomycin, heat inactivated fetal bovine serum, 0.05% trypsin and D-PBS were purchased from Life Technologies, Grand Island, N.Y., USA. Odyssey blocking buffer, 800CW goat anti-rabbit IgG (H+L) antibody, and Licor Odyssey infrared scanner were purchased from Licor Biosciences, Lincoln, Nebr., USA. Asymmetric di-methyl PABP1 antibody was purchased from Cell Signaling Technology, Danvers, Mass., USA. Methanol was purchased from VWR, Franklin, Mass., USA. 10% Tween 20 was purchased from KPL, Inc., Gaithersburg, Md., USA. Paraformaldehyde (PFA) was purchased from EM Sciences. DRAQ5 was purchased from Biostatus Limited, Leicestershire, UK.
RKO adherent cells were maintained in growth medium (DMEM/Glutamax medium supplemented with 10% v/v heat inactivated fetal bovine serum and 100 units/mL penicillin-streptomycin) and cultured at 37° C. under 5% CO2.
Compound (100 nL) from a 96-well source plate was added directly to 384 well cell plate. Plates were incubated at 37° C., 5% CO2 for 48 hours. After two days of incubation, plates were brought to room temperature outside of the incubator for ten minutes and blotted on paper towels to remove cell media. Cells were fixed for 20 minutes at room temperature by adding 50 ul of 8% PFA followed by aspiration of supernatant with the Biotek EL406 plate washer. Cells were then permeabilized by addition of 50 μL of ice cold 100% methanol directly to each well and incubated for 30 min at room temperature. After 30 min, plates were transferred to a Biotek EL406 plate washer and washed 2 times with 100 μL per well of wash buffer (IX PBS). Next 60 μL per well of Odyssey blocking buffer (Odyssey Buffer with 0.1% Tween 20 (v/v)) were added to each plate and incubated 1 hour at room temperature. Blocking buffer was removed and 20 μL per well of primary antibody was added (asymmetric-methyl PABP1) diluted 1:400 in Odyssey buffer with 0.1% Tween 20 (v/v)) and plates were incubated overnight (16 hours) at 4° C. Plates were washed 5 times with 100 μL per well of wash buffer. Next 20 μL per well of secondary antibody was added (1:800 800CW goat anti-rabbit IgG (H+L) antibody, 1:2000 DRAQ5 in Odyssey buffer with 0.1% Tween 20 (v/v)) and incubated for 1 hour at room temperature. The plates were washed 5 times with 100 μL per well wash buffer then 2 times with 100 μL per well of water. Plates were allowed to dry at room temperature then imaged on the Licor Odyssey machine which measures integrated intensity at 700 nm and 800 nm wavelengths. Both 700 and 800 channels were scanned.
First, the ratio for each well was determined by:
Each plate included fourteen control wells of DMSO only treatment (minimum inhibition) as well as fourteen control wells for maximum inhibition treated with 20 μM of a reference compound. The average of the ratio values for each control type was calculated and used to determine the percent […] for each test well in the plate. Reference compound was serially diluted three-fold in DMSO for a total of nine test concentrations, beginning at 20 μM.
Percent inhibition was determined and IC50 curves were generated using triplicate wells per concentration of compound.

Human CARM1 (PRMT4) = target: T1, Human CARM1 (PRMT4) (Homo sapiens, UniProt Q86X55); assay: CARM1 enzyme assay on peptide substrate (3H-SAM Flashplate); format: biochemical; settings: CARM1 0.25 nM, 3H-SAM 30 nM, peptide 250 nM; read-out: Biochem IC50
T1 construct: Flag-CARM1-His was eluted with 200 ug/ml FLAG peptide in buffer A; made in house; host or cells: HEK 293F cells infected with recombinant baculovirus (pFastBacMam)
Description: S-adenosylmethionine (SAM), S-adenosylhomocysteine (SAH), bicine, Tween20, dimethylsulfoxide (DMSO), bovine skin gelatin (BSG), sodium butyrate and Tris(2-carboxyethyl)phosphine hydrochloride solution (TCEP) were purchased from Sigma-Aldrich at the highest level of purity possible. ^3H-SAM was purchase from American Radiolabeled Chemicals with a specific activity of 80 Ci/mmol. 384-well streptavidin Flashplates were purchased from PerkinElmer.
Peptide representative of human histone H3 residues 16-30 was synthesized with an N-terminal linker-affinity tag motif and a C-terminal amide cap by 21st Century Biochemicals. The peptide was purified by high-performance liquid chromatography (HPLC) to greater than 95% purity and confirmed by liquid chromatography mass spectrometry (LC-MS). The sequence was Biot-Ahx-[…]-amide and contained a monomethylated arginine at position 26 (SEQ ID NO.:1).
Human CARM1 (PRMT4) (NM_199141.1) transcript clone was amplified from an HEK 293 cDNA library, incorporating a flanking 5′ sequence encoding a FLAG tag ([…]) (SEQ ID NO.:2) fused directly to Ala 2 of CARM1 and 3′ sequence encoding a hexa His sequence ([…]) (SEQ ID NO.:3) fused directly to Ser 608. The gene sequence encoding isoform1 containing a deletion of amino acids 539-561 was amplified subsequently and subcloned into pFastBacMam (Viva Biotech).
Recombinant baculovirus were generated according to Bac-to-Bac kit instructions (Life Technologies). Protein over-expression was accomplished by infecting exponentially growing HEK 293F cell culture at 1.3×10^6 cell/ml with virus (MOI=10) in the presence of 8 mM sodium butyrate. Infections were carried out at 37° C. for 48 hours, harvested by centrifugation, and stored at −80° C. for purification.
Column was washed with 500 mM NaCl in buffer A and Flag-CARM1-His was eluted with 200 ug/ml FLAG peptide in buffer A. Pooled fractions were dialyzed in 20 mM Tris, 150 mM NaCl, 5% glycerol and 1 mM DTT, pH 7.8. The purity of recovered protein was 94.
The assays were all performed in a buffer consisting of 20 mM Bicine (pH=7.6), 1 mM TCEP, 0.005% BSG, and 0.002% Tween 20, prepared on the day of use. Compounds in 100% DMSO (1 ul) were spotted into a polypropylene 384-well V-bottom plates (Greiner) using a Platemate Plus outfitted with a 384-channel head (Thermo Scientific). DMSO (1 ul) was added to Columns 11, 12, 23, 24, rows A-H for the maximum signal control and 1 ul of SAH, a known product and inhibitor of CARM1, was added to columns 11, 12, 23, 24, rows I—P for the minimum signal control. A cocktail (40 ul) containing the CARM1 enzyme was added by Multidrop Combi (Thermo-Fisher). The compounds were allowed to incubate with CARM1 for 30 min at room temperature, then a cocktail (10 ul) containing ^3H-SAM and peptide was added to initiate the reaction (final volume=51 ul). The final concentrations of the components were as follows: CARM1 was 0.25 nM, ^3H-SAM was 30 nM, peptide was 250 nM, SAH in the minimum signal control wells was 1 mM, and the DMSO concentration was 2%. The assays were stopped by the addition of non-radiolabeled SAM (10 ul) to a final concentration of 300 uM, which dilutes the ^3H-SAM to a level where its incorporation into the peptide substrate is no longer detectable. 50 ul of the reaction in the 384-well polypropylene plate was then transferred to a 384-well Flashplate and the biotinylated peptides were allowed to bind to the streptavidin surface for at least 1 hour before being washed once with 0.1% Tween20 in a Biotek ELx405 plate washer. The plates were then read in a PerkinElmer TopCount plate reader to measure the quantity of ^3H-labeled peptide bound to the Flashplate surface, measured as disintegrations per minute (dpm) or alternatively, referred to as counts per minute (cpm).
where dpm=disintegrations per minute, cmpd=signal in assay well, and min and max are the respective minimum and maximum signal controls. […]

T1 sequence (Q86X55 other isoform, or with tags, fused parts or gaps): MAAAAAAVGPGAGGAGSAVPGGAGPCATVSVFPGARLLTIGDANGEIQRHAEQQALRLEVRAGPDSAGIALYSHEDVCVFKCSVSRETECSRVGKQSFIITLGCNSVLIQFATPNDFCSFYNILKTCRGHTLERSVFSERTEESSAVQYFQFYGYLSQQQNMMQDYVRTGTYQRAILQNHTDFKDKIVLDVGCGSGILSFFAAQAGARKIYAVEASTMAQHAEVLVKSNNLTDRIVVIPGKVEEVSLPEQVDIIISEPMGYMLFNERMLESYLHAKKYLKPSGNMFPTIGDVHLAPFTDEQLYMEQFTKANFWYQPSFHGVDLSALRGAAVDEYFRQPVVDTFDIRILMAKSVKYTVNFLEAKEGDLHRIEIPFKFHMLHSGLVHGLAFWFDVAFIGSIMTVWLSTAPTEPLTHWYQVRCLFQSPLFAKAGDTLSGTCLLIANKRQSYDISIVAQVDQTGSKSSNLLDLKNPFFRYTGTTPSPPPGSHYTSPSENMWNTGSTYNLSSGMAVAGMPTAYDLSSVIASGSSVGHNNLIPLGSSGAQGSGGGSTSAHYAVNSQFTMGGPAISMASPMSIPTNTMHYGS

IC50 ([1]; Homo sapiens) [nM] | IC50 (Human CARM1 (PRMT4)) [nM] | IC50 [1] [nM] | Compound
> 20000 | < 100 |  | CC(C)n1ncc2c(N[C@@H]3CO[C@H]4OCC[C@H]43)cc(-c3cccc(OCC(O)CN)c3)nc21 (stereo partly drawn) [Example 5-8]
> 20000 | < 100 |  | CNCC(O)COc1cc(OC)cc(-c2cc(-c3cnc4[nH]ccc4c3)c3cnn(C(C)C)c3n2)c1 (stereo not drawn) [Example 5-9]
10000 to 20000 | < 100 |  | CNCC(O)COc1cccc(-c2cc(N(C)C3CCOCC3)c3c(C)nn(C(C)C)c3n2)c1 (stereo not drawn) [Example 6-2]
> 20000 | < 100 |  | CNCC(O)COc1cc(O)cc(-c2cc(N3CCOCC3)c3cnn(C(C)C)c3n2)c1 (stereo not drawn) [Example 6-4]
> 20000 | < 100 |  | CC(C)n1ncc2c(N3CCOCC3)nc(-c3cccc(OCC(O)CN)c3)nc21 (stereo not drawn) [Example 6-5]
 | < 100 | > 20000 | CC(C)n1ncc2c(N[C@@H]3CO[C@H]4OCC[C@H]43)cc(-c3cccc(OCC(O)CN)c3)nc21 (stereo partly drawn) [Example 6-8]
> 20000 | < 100 |  | CNCC(O)COc1cccc(-c2cc(NCc3c(C)cc(C)nc3OC)c3cnn(C(C)C)c3n2)c1 (stereo not drawn) [Example 6-9]
> 20000 | < 100 |  | CNCC(O)COc1cc(N)cc(-c2cc(NC3CCOCC3)c3cnn(C(C)C)c3n2)c1 (stereo not drawn) [Example 7-4]
> 20000 | < 100 |  | CC(C)n1ncc2c(NC3CCOC3)nc(-c3cccc(OCC(O)CN)c3)nc21 (stereo not drawn) [Example 7-5]
> 20000 | 100 to 1000 |  | CNCC(O)COc1cccc(-c2cc(N3CCOCC3)n3ncc(C(C)C)c3n2)c1 (stereo not drawn) [Example 7-6]
> 20000 | < 100 |  | CC(C)n1ncc2c(N3CCOCC3)cc(-c3cc(F)cc(OCC(O)CN)c3)nc21 (stereo not drawn) [Example 7-8]
10000 to 20000 | < 100 |  | CNCC(O)COc1cccc(-c2nc(N3CC4CCC(C3)O4)c3cnn(C4CC4)c3n2)c1 (stereo not drawn) [Example 7-9]
10000 to 20000 | < 100 |  | CNCC(O)COc1cc(OC)cc(-c2cc(N3CCOCC3)c3cnn(C(C)C)c3n2)c1 (stereo not drawn) [Example 8-4]
10000 to 20000 | < 100 |  | CNCC(O)COc1cccc(-c2nc(N3CCOCC3)c3cnn(C(C)C)c3n2)c1 (stereo not drawn) [Example 8-5]
> 20000 | < 100 |  | CNC[C@@H](O)COc1cccc(-c2cc(N3CCOCC3)n3ncc(C(C)C)c3n2)c1 [Example 8-6]
> 20000 | < 100 |  | CNCC(O)COc1cccc(-c2nc(NCc3cnn(C)c3)c3cnn(C(C)(C)C)c3n2)c1 (stereo not drawn) [Example 8-8]
10000 to 20000 | 100 to 1000 |  | CNCC(O)COc1cccc(-c2nc(NCc3nccs3)c3cnn(C4CC4)c3n2)c1 (stereo not drawn) [Example 8-9]

IC50 ([1]; Homo sapiens) [nM] | IC50 (Human CARM1 (PRMT4)) [nM] | IC50 [1] [nM] | Compound
> 20000 | < 100 |  | CNCC(O)COc1cc(Cl)cc(-c2cc(NC3CCOC3)c3cnn(C(C)C)c3n2)c1 (stereo not drawn) [Example 9-4]
> 20000 | < 100 |  | CC(C)(C)n1ncc2c(N3CCOCC3)nc(-c3cccc(OCC(O)CN)c3)nc21 (stereo not drawn) [Example 9-5]
> 20000 | < 100 |  | CNC[C@H](O)COc1cccc(-c2cc(N3CCOCC3)n3ncc(C(C)C)c3n2)c1 [Example 9-6]
> 20000 | < 100 |  | CC(C)c1cnn2c(N3CCOCC3)cc(-c3cccc(OC[C@@H](O)CN)c3)nc12 [Example 9-8]
> 20000 | 100 to 1000 |  | CNCC(O)COc1cc(Cl)cc(-c2cc(N(C)C3CCOCC3)n3ncc(C(C)(C)C)c3n2)c1 (stereo not drawn) [Example 9-9]
> 20000 | < 100 |  | CNCC(O)COc1cc(OC)cc(-c2cc(Nc3cncnc3)c3cnn(C(C)C)c3n2)c1 (stereo not drawn) [Example 10-4]
10000 to 20000 | < 100 |  | CNCC(O)COc1cccc(-c2nc(NC3CCOC3)c3cnn(C(C)C)c3n2)c1 (stereo not drawn) [Example 10-5]
> 20000 | < 100 |  | CNCC(O)COc1cccc(-c2cc(N[C@H]3CCOC3)n3ncc(C(C)C)c3n2)c1 (stereo partly drawn) [Example 10-6]
> 20000 | < 100 |  | CC(C)c1cnn2c(N3CCOCC3)cc(-c3cccc(OC[C@H](O)CN)c3)nc12 [Example 10-8]
> 20000 | 100 to 1000 |  | CN(c1cc(-c2cccc(OCC(O)CN)c2)nc2c(C(C)(C)C)cnn12)C1CCOCC1 (stereo not drawn) [Example 10-9]
> 20000 | 100 to 1000 |  | CNCC(O)COc1cc(C#N)cc(-c2cc(NC3CCOCC3)c3cnn(C(C)C)c3n2)c1 (stereo not drawn) [Example 11-4]
> 20000 | 100 to 1000 |  | NCC(O)COc1cccc(-c2nc(NCc3cccnc3)c3cnn(C4CC4)c3n2)c1 (stereo not drawn) [Example 11-5]
> 20000 | < 100 |  | CNCC(O)COc1cccc(-c2cc(N[C@@H]3CCOC3)n3ncc(C(C)C)c3n2)c1 (stereo partly drawn) [Example 11-6]
> 20000 | 100 to 1000 |  | CC(C)c1cnn2c(N(C)C3CCOCC3)cc(-c3cccc(OCC(O)CN)c3)nc12 (stereo not drawn) [Example 11-8]
> 20000 | 100 to 1000 |  | CNCC(O)COc1cccc(-c2cc(NC(=O)NC)c3cnn(C(C)C)c3n2)c1 (stereo not drawn) [Example 11-9]
> 20000 | 100 to 1000 |  | CNCC(O)COc1cc(-c2cc(N3CCOCC3)c3cnn(C(C)C)c3n2)cc(C2CC2)c1 (stereo not drawn) [Example 12-4]
